Test results from the CheMixHub ionic liquid set.

Test: xn = mol fraction of the nth substance listed

CCCC[N+]1(C)CCCC1.O=S(=O)([N-]S(=O)(=O)C(F)(F)F)C(F)(F)F + Cc1ccccc1
viscosity [mPa·s], 100 kPa
Settings | x2 = 0 | x2 = 0.3041 | x2 = 0.3965 | x2 = 0.5054 | x2 = 0.6027 | x2 = 0.7066
298.15 K | 70.1 | – | – | 14.96 | 10.08 | –
303.15 K | – | 25.03 | 18.66 | – | – | –
313.15 K | 37.99 | 18.55 | 14.35 | – | – | 4.73

CC(C)O + CCCCCC[N+](CC)(CC)CC.O=S(=O)([N-]S(=O)(=O)C(F)(F)F)C(F)(F)F
100 kPa, x1 = 1
Settings | viscosity [mPa·s]
298.15 K | 2.05
303.15 K | 1.73
308.15 K | 1.49

CCCC[n+]1ccn(C)c1.COP(=O)([O-])OC + CCO
viscosity [mPa·s], 101 kPa
Settings | 293.15 K | 298.15 K | 308.15 K | 313.15 K | 318.15 K | 323.15 K | 328.15 K | 333.15 K
x2 = 0.201 | – | – | 155.7 | – | – | – | – | –
x2 = 0.399 | 150.9 | 114.4 | – | 55.65 | 45.2 | 37.08 | 30.89 | 25.94
x2 = 0.8 | – | – | 5.933 | 5.272 | – | 4.227 | 3.811 | –

CCCCCCCCCCCCCCCC[n+]1ccccc1.O=C([O-])c1ccccc1O + NCC(=O)NCC(=O)O + O
electrical conductivity [S/m], 101 kPa
Settings | 293.15 K | 298.15 K | 303.15 K | 308.15 K | 313.15 K
x2 = 0.0009002, x1 = 3.6e-07 | 0.0016 | 0.0019 | 0.00224 | 0.00265 | 0.00314
x2 = 0.0009002, x1 = 7.2e-07 | 0.00178 | 0.0021 | 0.00248 | 0.0029 | 0.00341
x2 = 0.0009002, x1 = 1.09e-06 | 0.00197 | 0.00232 | 0.00272 | 0.00318 | 0.00371
x2 = 0.0009002, x1 = 1.27e-06 | 0.00204 | 0.00241 | 0.00282 | 0.00329 | 0.00384
x2 = 0.0009002, x1 = 1.63e-06 | 0.00215 | 0.00253 | 0.00296 | 0.00345 | 0.00402
x2 = 0.0009002, x1 = 1.99e-06 | 0.00228 | 0.00269 | 0.00318 | 0.00366 | 0.00426
x2 = 0.0009002, x1 = 2.36e-06 | 0.00242 | 0.00285 | 0.00336 | 0.00389 | 0.00452
x2 = 0.0009002, x1 = 2.72e-06 | 0.00254 | 0.00298 | 0.0035 | – | 0.00473
x2 = 0.0009002, x1 = 3.08e-06 | 0.00261 | 0.00307 | 0.0036 | 0.00419 | 0.00487
x2 = 0.0009002, x1 = 3.44e-06 | 0.00272 | 0.00319 | 0.00373 | 0.00434 | 0.00504
x2 = 0.0009002, x1 = 3.81e-06 | 0.00285 | 0.00334 | 0.00389 | 0.00452 | 0.00524
x2 = 0.0009002, x1 = 4.35e-06 | 0.00298 | 0.00348 | 0.00404 | 0.00468 | 0.00543
x2 = 0.0009002, x1 = 4.71e-06 | 0.00311 | 0.00362 | 0.00422 | 0.00487 | 0.00562
x2 = 0.0009002, x1 = 5.26e-06 | 0.00322 | 0.00374 | 0.00435 | 0.00501 | 0.00579
x2 = 0.0009002, x1 = 5.62e-06 | 0.00334 | – | 0.0045 | 0.00518 | 0.00595
x2 = 0.001799, x1 = 1.8e-07 | 0.00253 | 0.00303 | 0.00363 | 0.00434 | 0.00519
x2 = 0.001799, x1 = 3.6e-07 | 0.0026 | 0.00311 | 0.00371 | 0.00444 | 0.00529
x2 = 0.001799, x1 = 5.5e-07 | 0.00269 | 0.00321 | 0.00382 | 0.00456 | –
x2 = 0.001799, x1 = 7.3e-07 | 0.00282 | 0.00336 | 0.00389 | 0.00475 | 0.00563
x2 = 0.001799, x1 = 9.1e-07 | 0.00291 | 0.00345 | 0.0041 | 0.00487 | 0.00576
x2 = 0.001799, x1 = 1.28e-06 | 0.00301 | 0.00357 | 0.00422 | 0.00501 | 0.00592
x2 = 0.001799, x1 = 1.46e-06 | 0.00313 | 0.0037 | 0.00438 | 0.00519 | 0.00613
x2 = 0.001799, x1 = 1.82e-06 | 0.00325 | 0.00384 | 0.00454 | 0.00537 | 0.00632
x2 = 0.001799, x1 = 2.19e-06 | 0.00335 | 0.00397 | 0.00469 | 0.00555 | 0.00653
x2 = 0.001799, x1 = 2.55e-06 | 0.00347 | 0.0041 | 0.00484 | 0.00572 | 0.00673
x2 = 0.001799, x1 = 2.92e-06 | 0.00355 | 0.00419 | 0.00495 | 0.00584 | 0.00688
x2 = 0.001799, x1 = 3.1e-06 | – | – | – | – | 0.00701
x2 = 0.001799, x1 = 3.46e-06 | 0.00371 | 0.00437 | 0.00515 | 0.00607 | 0.00715
x2 = 0.001799, x1 = 3.83e-06 | 0.00379 | 0.00447 | 0.00526 | 0.00619 | 0.00728
x2 = 0.001799, x1 = 4.01e-06 | – | – | – | – | 0.00738

CC[N+](C)(CC)CCOC.O=S(=O)([N-]S(=O)(=O)C(F)(F)F)C(F)(F)F + CC[N+](C)(CC)CCOC.F[B-](F)(F)F
Settings | electrical conductivity [S/m]
298.15 K, 100 kPa, x1 = 1 | 0.311
